Test results from article PMC10857906, “PROTAC-mediated NR4A1 degradation as a novel strategy for cancer immunotherapy” (The Journal of Experimental Medicine, 2024).

Experiments:
PK study in mice = format: in vivo, C57BL/6 mice; details: mouse
Method: The PK study of NR-V04 was done by Bioduro Inc. on three healthy male C57BL/6 mice weighing between 20 and 25 g in each group. Test compound (i.v.) was dissolved in 5% DMSO/3% tween 80 in PBS with 0.5 mEq 1N HCl and was administered (n = 3 per group) at a dose level of 2 mg/kg (concentration: 0.4 mg/ml). Test compounds (i.p.) were dissolved in 5% DMSO/3% tween 80 in PBS with 2 mEq 1N HCl (concentration […]) and were administrated at a dose level of 20 mg/kg. Plasma samples (i.v.) were collected from the orbital plexus at 0.083, 0.25, 0.5, 1.0, 2.0, 4.0, 8.0, and 24 h, and plasma samples (i.p.) were collected from the orbital plexus at 0.25, 0.50, 1.0, 2.0, 4.0, 8.0, and 24 h after dosing. The drug concentrations in the samples were quantified by LC/tandem MS. PK parameters were calculated from the mean plasma concentration by non-compartmental analysis.

TI-B cells = assay: Immune profile by flow cytometry in Yumm1.7 tumor-bearing mice; format: in vivo, mouse; details: Yumm1.7 tumors, 2 doses of 1.8 mg/kg i.p.
Method: For syngeneic tumor models, 5 × 10^5 cells MC38, Yumm1.7, and Yummer1.7, 1 × 10^5 cells of B16F10 were resuspended in PBS and implanted into 7–9-wk-old mice subcutaneously. For the tumor inhibition experiment, mice were treated with 1.8 mg/kg NR-V04 or 0.75 mg/kg celastrol by i.p. injection twice weekly. For the immune profile experiment, once tumors reached 0.5 cm in diameter, mice were treated with 1.8 mg/kg NR-V04 by i.p. injection twice weekly. For the toxicity experiment, male and female non-tumor-bearing mice were treated with 2 mg/kg NR-V04 for two doses in the first week and 5 mg/kg for another two doses in the second week. Blood samples were taken from the submandibular (facial) vein before each treatment and 42 days later for hematological analysis, and body weight was measured twice per week up to day 42. Mice were euthanized in accordance with the IACUC protocol once the largest tumors reached 2 cm in diameter, and tissues were collected for further analysis.
Mouse tumors were excised and ∼200 mg of tumor tissue was enzymatically and mechanically digested using the mouse Tumor Dissociation Kit (Miltenyi Biotec) to obtain a single-cell suspension. […] Flow cytometry was performed on a three laser Cytek Aurora Cytometer (Cytek Biosciences) and analyzed using FlowJo software (BD Biosciences). […]

CC1=C(O)C(=O)C=C2C1=CC=C1[C@@]2(C)CC[C@@]2(C)[C@@H]3C[C@](C)(C(=O)NCCOCCOCCOCCOCC(=O)N[C@H](C(=O)N4C[C@H](O)C[C@H]4C(=O)N[C@@H](C)c4ccc(-c5scnc5C)cc4)C(C)(C)C)CC[C@]3(C)CC[C@]12C [NR-V04]
clearance (PK study in mice; male, C57BL/6, plasma, IV 2 mg/kg): 0.162 mL/min/kg | clearance rate (in words) (PK study in mice): low clearance rate | TI-B cells (TI-B cells): significant increase in the TI-B cells
